Experimental data published in US20050037294A1, “Stabilized p-phenylenediamine-type photographic color developers in free base form” (priority 2000, published 2005).

Assay: Saturation solubility of color developer free base in solvents and solvent/water mixtures (HPLC and NMR)
Settings: for CD Free Base Conc. (saturation solubility): ambient temperature, 3% DEHA added; for Solubility in the solvents evaluated (in words): all solvents evaluated, room temperature
Experimental: Representative solvents were selected from each of the different classes of solvents: alcohols, glycols and glycol ethers. A small quantity of a representative preservative, 3% of N,N-dietheylhydroxylamine (DEHA), was added.

SMILES | CD Free Base Conc. (saturation solubility) (2-Propanol/Water 10:90 (weight:weight)) [weight percent] | CD Free Base Conc. (saturation solubility) (2-Propanol/Water 50:50 (weight:weight)) [weight percent] | CD Free Base Conc. (saturation solubility) (2-Propanol/Water 90:10 (weight:weight)) [weight percent] | Solubility in 2-propanol (in words) (2-propanol) | CD Free Base Conc. (saturation solubility) (Ethanol/Water 10:90 (weight:weight)) [weight percent] | CD Free Base Conc. (saturation solubility) (Ethanol/Water 50:50 (weight:weight)) [weight percent] | CD Free Base Conc. (saturation solubility) (Ethanol/Water 90:10 (weight:weight)) [weight percent] | CD Free Base Conc. (saturation solubility) (Methanol/Water 10:90 (weight:weight)) [weight percent] | CD Free Base Conc. (saturation solubility) (Methanol/Water 50:50 (weight:weight)) [weight percent] | CD Free Base Conc. (saturation solubility) (Methanol/Water 90:10 (weight:weight)) [weight percent] | Solubility in the solvents evaluated (in words) | CD Free Base Conc. (saturation solubility) (solvent 2-Isopropoxyethanol) [weight percent] | CD Free Base Conc. (saturation solubility) (solvent 2-Methyl-1,3-Propanediol) [weight percent] | CD Free Base Conc. (saturation solubility) (solvent 2-Propanol) [weight percent] | CD Free Base Conc. (saturation solubility) (solvent 3-Methoxy-1-Butanol) [weight percent] | CD Free Base Conc. (saturation solubility) (solvent Diethylene Glycol) [weight percent] | CD Free Base Conc. (saturation solubility) (solvent Ethanol) [weight percent] | CD Free Base Conc. (saturation solubility) (solvent Methanol) [weight percent] | CD Free Base Conc. (saturation solubility) (solvent PEG-200) [weight percent] | CD Free Base Conc. (saturation solubility) (solvent PEG-300) [weight percent]
CCN(CCNS(C)(=O)=O)c1ccc(N)c(C)c1 [CD-3 free base, 4-amino-3-methyl-N-ethyl-N-(2-methanesulfonamidoethyl)aniline] | 0.8 | 9.2 | 7.8 | low solubility | 0.6 | 9.0 | 9.7 | 0.7 | 6.8 | 18.9 | lesser solubility | 8.6 | 3.3 | 1.8 | 9.3 | 15.2 | 5.4 | 23.6 | 16.9 | 16.7
CCN(CC)c1ccc(N)c(C)c1 [CD-2 free base, 4-amino-3-methyl-N,N-diethylaniline] | – | – | – | – | – | – | – | – | – | – | fully miscible | – | – | – | – | – | – | – | – | –
